In patent publication US9694021B2, “Pharmaceutical compositions with phosphonium antimicrobial agents” (Alcon Research, Ltd., priority 2010, dated 2017):

Assays:
Assay type in all cases: cell-based
E. Coli = assay: Preservative efficacy test (PET), E. Coli; details: boric acid/mannitol/NaCl, pH 6.0
Excerpt: (§1) The present invention is particularly useful for the provision of multi-dose pharmaceutical (e.g., ophthalmic) compositions that have sufficient antimicrobial activity to allow the compositions to satisfy the USP preservative efficacy requirements, as well as other preservative efficacy standards for aqueous pharmaceutical compositions.
(§2) The preservative efficacy standards for multi-dose ophthalmic solutions in the U.S. and other countries/regions are set forth in the following table:
(§3) Concentrations for the various ingredients of the compositions of the examples provided below are w/v % unless otherwise specifically stated. The compositions of Examples A-D and their preservation efficacy testing (PET) results are provided below.

Candida A. = assay: Preservative efficacy test (PET), Candida A.; details: boric acid/mannitol/NaCl, pH 6.0
Excerpt: as §1, §2, §3

Aspergillus N. = assay: Preservative efficacy test (PET), Aspergillus N.; details: boric acid/mannitol/NaCl, pH 6.0
Excerpt: as §1, §2, §3

canine epithelial cells = assay: Cytotoxicity, neutral red retention
Excerpt: FIGS. 1 and 2 illustrate the relative cytotoxicity of compounds, some of which are in accordance with the present invention.
FIGS. 1 and 2 illustrate the cytotoxicity of the compounds shown in the above examples. In particular, these Figures show the neutral red retention of canine epithelial cells for the various compounds with the greater neutral red retention showing the lower the cytotoxicity. […] As such, many of these phosphonium antimicrobial agents can be used as suitable replacements for benzalkonium chloride particularly in circumstances where benzalkonium chloride is unsuitable (e.g., is incompatible with other ingredients in a solution).

Staph Aureus = assay: Preservative efficacy test (PET), Staph Aureus; details: boric acid/mannitol/NaCl, pH 6.0
Excerpt: as §1, §2, §3

Pseudomonas A. = assay: Preservative efficacy test (PET), Pseudomonas A.; details: boric acid/mannitol/NaCl, pH 6.0
Excerpt: as §1, §2, §3

Bacteria, Fungi = assay: PET overall result (Pass/Fail against USP / Ph. Eur. criteria); details: for PET Results (Pass/Fail): boric acid/mannitol/NaCl, pH 6.0
Excerpt: as §1, §2, §3

OC[P+](CO)(CO)CO.[Cl-] [Tetrakis-Hydroxymethyl-Phosphonium Chloride]
E. Coli (6 Hr), PET log order reduction (E. Coli; 0.0025 % w/v): 5.1/5.1/
E. Coli (6 Hr), PET log order reduction (E. Coli; 0.005 % w/v): 5.1/5.1/
E. Coli (6 Hr), PET log order reduction (E. Coli; 0.01 % w/v): 5.1/5.1/
E. Coli (7 Day), PET log order reduction (E. Coli; 0.0025 % w/v): 5.1/5.1/5.1
E. Coli (7 Day), PET log order reduction (E. Coli; 0.005 % w/v): 5.1/5.1/5.1
E. Coli (7 Day), PET log order reduction (E. Coli; 0.01 % w/v): 5.1/5.1/5.1
E. Coli (14 Day), PET log order reduction (E. Coli; 0.0025 % w/v): 5.1/5.1/5.1
E. Coli (14 Day), PET log order reduction (E. Coli; 0.005 % w/v): 5.1/5.1/5.1
E. Coli (14 Day), PET log order reduction (E. Coli; 0.01 % w/v): 5.1/5.1/5.1
E. Coli (24 Hr), PET log order reduction (E. Coli; 0.0025 % w/v): 5.1/5.1/
E. Coli (24 Hr), PET log order reduction (E. Coli; 0.005 % w/v): 5.1/5.1/
E. Coli (24 Hr), PET log order reduction (E. Coli; 0.01 % w/v): 5.1/5.1/
E. Coli (28 Day), PET log order reduction (E. Coli; 0.0025 % w/v): 5.1/5.1/5.1
E. Coli (28 Day), PET log order reduction (E. Coli; 0.005 % w/v): 5.1/5.1/5.1
E. Coli (28 Day), PET log order reduction (E. Coli; 0.01 % w/v): 5.1/5.1/5.1
Candida A. (7 Day), PET log order reduction (Candida A.; 0.0025 % w/v): 0.0
Candida A. (7 Day), PET log order reduction (Candida A.; 0.005 % w/v): 0.1
Candida A. (7 Day), PET log order reduction (Candida A.; 0.01 % w/v): 0.9
Candida A. (14 Day), PET log order reduction (Candida A.; 0.0025 % w/v): 0.2
Candida A. (14 Day), PET log order reduction (Candida A.; 0.005 % w/v): 0.7
Candida A. (14 Day), PET log order reduction (Candida A.; 0.01 % w/v): 2.2
Candida A. (28 Day), PET log order reduction (Candida A.; 0.0025 % w/v): 1.2
Candida A. (28 Day), PET log order reduction (Candida A.; 0.005 % w/v): 2.0
Candida A. (28 Day), PET log order reduction (Candida A.; 0.01 % w/v): 3.9
Aspergillus N. (7 D), PET log order reduction (Aspergillus N.; 0.0025 % w/v): 3.1
Aspergillus N. (7 D), PET log order reduction (Aspergillus N.; 0.005 % w/v): 3.3
Aspergillus N. (7 D), PET log order reduction (Aspergillus N.; 0.01 % w/v): 3.2
Aspergillus N. (14 D), PET log order reduction (Aspergillus N.; 0.0025 % w/v): 2.9
Aspergillus N. (14 D), PET log order reduction (Aspergillus N.; 0.005 % w/v): 3.2
Aspergillus N. (14 D), PET log order reduction (Aspergillus N.; 0.01 % w/v): 5.3
Aspergillus N. (28 Day), PET log order reduction (Aspergillus N.; 0.0025 % w/v): 2.4
Aspergillus N. (28 Day), PET log order reduction (Aspergillus N.; 0.005 % w/v): 3.2
Aspergillus N. (28 Day), PET log order reduction (Aspergillus N.; 0.01 % w/v): 5.3
cytotoxicity (neutral red retention of canine epithelial cells) (canine epithelial cells; FIG. 1, greater neutral red retention = lower cytotoxicity): extremely low level of cytotoxicity
cytotoxicity (neutral red retention of canine epithelial cells) (canine epithelial cells; FIG. 2, various concentrations and vehicles): extremely low toxicity regardless of concentration and/or the vehicle
Staph Aureus (6 Hr), PET log order reduction (Staph Aureus; 0.0025 % w/v): 5.0/5.0/
Staph Aureus (6 Hr), PET log order reduction (Staph Aureus; 0.005 % w/v): 5.0/5.0/
Staph Aureus (6 Hr), PET log order reduction (Staph Aureus; 0.01 % w/v): 5.0/5.0/
Staph Aureus (7 Day), PET log order reduction (Staph Aureus; 0.0025 % w/v): 5.0/5.0/5.0
Staph Aureus (7 Day), PET log order reduction (Staph Aureus; 0.005 % w/v): 5.0/5.0/5.0
Staph Aureus (7 Day), PET log order reduction (Staph Aureus; 0.01 % w/v): 5.0/5.0/5.0
Staph Aureus (14 Day), PET log order reduction (Staph Aureus; 0.0025 % w/v): 5.0/5.0/5.0
Staph Aureus (14 Day), PET log order reduction (Staph Aureus; 0.005 % w/v): 5.0/5.0/5.0
Staph Aureus (14 Day), PET log order reduction (Staph Aureus; 0.01 % w/v): 5.0/5.0/5.0
Staph Aureus (24 Hr), PET log order reduction (Staph Aureus; 0.0025 % w/v): 5.0/5.0/
Staph Aureus (24 Hr), PET log order reduction (Staph Aureus; 0.005 % w/v): 5.0/5.0/
Staph Aureus (24 Hr), PET log order reduction (Staph Aureus; 0.01 % w/v): 5.0/5.0/
Staph Aureus (28 Day), PET log order reduction (Staph Aureus; 0.0025 % w/v): 5.0/5.0/5.0
Staph Aureus (28 Day), PET log order reduction (Staph Aureus; 0.005 % w/v): 5.0/5.0/5.0
Staph Aureus (28 Day), PET log order reduction (Staph Aureus; 0.01 % w/v): 5.0/5.0/5.0
Pseudomonas A. (6 Hr), PET log order reduction (Pseudomonas A.; 0.0025 % w/v): 3.3
Pseudomonas A. (6 Hr), PET log order reduction (Pseudomonas A.; 0.005 % w/v): 5.0/5.0/
Pseudomonas A. (6 Hr), PET log order reduction (Pseudomonas A.; 0.01 % w/v): 5.0/5.0/
Pseudomonas A. (7 Day), PET log order reduction (Pseudomonas A.; 0.0025 % w/v): 5.0/5.0/5.0
Pseudomonas A. (7 Day), PET log order reduction (Pseudomonas A.; 0.005 % w/v): 5.0/5.0/5.0
Pseudomonas A. (7 Day), PET log order reduction (Pseudomonas A.; 0.01 % w/v): 5.0/5.0/5.0
Pseudomonas A. (14 Day), PET log order reduction (Pseudomonas A.; 0.0025 % w/v): 5.0/5.0/5.0
Pseudomonas A. (14 Day), PET log order reduction (Pseudomonas A.; 0.005 % w/v): 5.0/5.0/5.0
Pseudomonas A. (14 Day), PET log order reduction (Pseudomonas A.; 0.01 % w/v): 5.0/5.0/5.0
Pseudomonas A. (24 Hr), PET log order reduction (Pseudomonas A.; 0.0025 % w/v): 5.0
Pseudomonas A. (24 Hr), PET log order reduction (Pseudomonas A.; 0.005 % w/v): 5.0/5.0/
Pseudomonas A. (24 Hr), PET log order reduction (Pseudomonas A.; 0.01 % w/v): 5.0/5.0/
Pseudomonas A. (28 Day), PET log order reduction (Pseudomonas A.; 0.0025 % w/v): 5.0/5.0/5.0
Pseudomonas A. (28 Day), PET log order reduction (Pseudomonas A.; 0.005 % w/v): 5.0/5.0/5.0
Pseudomonas A. (28 Day), PET log order reduction (Pseudomonas A.; 0.01 % w/v): 5.0/5.0/5.0
PET Results (Pass/Fail) (Bacteria, Fungi; 0.0025 % w/v): Pass USP
PET Results (Pass/Fail) (Bacteria, Fungi; 0.005 % w/v): Pass USP
PET Results (Pass/Fail) (Bacteria, Fungi; 0.01 % w/v): Pass EP-B
preservation / antimicrobial efficacy, in words (Bacteria, Fungi; summary statements of the text on the PET tables): highly desirable antimicrobial efficacy
